Assay results reported in ChEMBL document CHEMBL6115005, “New phenylpiperazine-thiazolidine-2,4-dione hybrids targeting MAO inhibition: Synthesis, biological evaluation, kinetic study and in silico insights” (Bioorg Med Chem, 2025).

Legend:
[1] = target: T1, Amine oxidase [flavin-containing] A (Homo sapiens, UniProt P21397); assay: Inhibition of MAO-A (unknown origin)
T1 sequence (P21397 whole entry): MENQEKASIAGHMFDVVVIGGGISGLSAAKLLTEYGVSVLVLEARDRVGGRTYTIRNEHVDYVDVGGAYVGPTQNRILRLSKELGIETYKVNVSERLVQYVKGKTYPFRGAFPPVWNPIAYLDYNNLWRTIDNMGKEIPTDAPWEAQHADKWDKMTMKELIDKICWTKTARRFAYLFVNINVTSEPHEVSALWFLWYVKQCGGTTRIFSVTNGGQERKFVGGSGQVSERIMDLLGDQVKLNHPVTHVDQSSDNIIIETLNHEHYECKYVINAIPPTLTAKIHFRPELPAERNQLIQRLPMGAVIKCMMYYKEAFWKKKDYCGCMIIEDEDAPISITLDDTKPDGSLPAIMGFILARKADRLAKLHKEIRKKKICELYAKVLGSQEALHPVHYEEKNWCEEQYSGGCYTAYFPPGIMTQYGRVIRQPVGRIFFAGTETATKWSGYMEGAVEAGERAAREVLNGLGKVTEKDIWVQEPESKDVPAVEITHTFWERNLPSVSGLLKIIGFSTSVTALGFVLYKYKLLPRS

Homo sapiens = species: Homo sapiens; assay: Selectivity index, ratio of IC50 for inhibition of human MAO-B using benzylamine as substrate to IC50 for inhibition of human MAO-A using kynuramine as substrate
[2] = target: T2, Amine oxidase [flavin-containing] B (Homo sapiens, UniProt P27338); assay: Inhibition of human MAO-B using benzylamine as substrate by fluorometric assay
T2 sequence (P27338 whole entry): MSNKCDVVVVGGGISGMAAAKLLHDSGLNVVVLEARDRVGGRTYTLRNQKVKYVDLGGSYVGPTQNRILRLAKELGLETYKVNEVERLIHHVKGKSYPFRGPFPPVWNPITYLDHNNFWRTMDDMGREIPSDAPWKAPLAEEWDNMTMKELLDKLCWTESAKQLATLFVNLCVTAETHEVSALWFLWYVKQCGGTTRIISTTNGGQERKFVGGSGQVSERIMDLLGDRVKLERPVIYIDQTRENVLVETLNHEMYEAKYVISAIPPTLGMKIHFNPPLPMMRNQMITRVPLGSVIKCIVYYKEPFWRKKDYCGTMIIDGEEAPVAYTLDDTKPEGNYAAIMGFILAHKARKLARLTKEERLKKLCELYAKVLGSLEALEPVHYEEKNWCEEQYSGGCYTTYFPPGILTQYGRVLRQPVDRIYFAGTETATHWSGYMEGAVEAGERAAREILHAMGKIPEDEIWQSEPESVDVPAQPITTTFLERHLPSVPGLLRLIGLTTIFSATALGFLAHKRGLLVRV

[3] = target: T1, Amine oxidase [flavin-containing] A; assay: Inhibition of human MAO-A using kynuramine as substrate by fluorometric assay
PC-12 = assay: Neuroprotective activity against rotenone-induced cytotoxicity in rat PC12 cells assessed as increase in cell viability at 16 microg/ml by MTT assay; type: functional; conditions: dose 16 µg/ml
[4] = target: T2, Amine oxidase [flavin-containing] B; assay: Inhibition of MAO-B (unknown origin)
SH-SY5Y = assay: Cytotoxicity against human SH-SY5Y cells by MTT assay; type: functional, cell-based
[5] = target: T1, Amine oxidase [flavin-containing] A; assay: Mixed type inhibition of human MAO-A by lineweaver-burk plot analysis

OCc1ccc(N2CCN(c3cccc(Cl)c3)CC2)cc1
IC50 [1]: 90 nM

C=CCN1C(=O)S/C(=C\c2ccc(N3CCN(c4ccccc4)CC3)cc2)C1=O
Ratio IC50 (Homo sapiens): > 2.66 | IC50 [2]: > 10000 nM | IC50 [3]: 5700 nM

C=CCN1C(=O)S/C(=C\c2ccc(N3CCN(c4ccc(F)cc4)CC3)cc2)C1=O
Ratio IC50 (Homo sapiens): 0.22 | IC50 [2]: 330 nM | IC50 [3]: 1480 nM

C#CCN1C(=O)S/C(=C\c2ccc(N3CCN(c4ccccc4OCC)CC3)cc2)C1=O
Ratio IC50 (Homo sapiens): 7.96 | IC50 [2]: 1740 nM | IC50 [3]: 218 nM

O=C1S/C(=C\c2ccc(N3CCN(c4ccccc4)CC3)cc2)C(=O)N1Cc1ccccc1
Ratio IC50 (Homo sapiens): 3.36 | IC50 [2]: 652 nM | IC50 [3]: 194 nM

O=C1S/C(=C\c2ccc(N3CCN(C4CCCCC4)CC3)cc2)C(=O)N1Cc1ccccc1
Ratio IC50 (Homo sapiens): 5.28 | IC50 [2]: 2740 nM | IC50 [3]: 518 nM

C#CCN1C(=O)S/C(=C\c2ccc(N3CCN(C4CCCCC4)CC3)cc2)C1=O
Ratio IC50 (Homo sapiens): 0.49 | IC50 [2]: 705 nM | IC50 [3]: 1430 nM

CCOc1ccccc1N1CCN(c2ccc(/C=C3\SC(=O)NC3=O)cc2)CC1
Ratio IC50 (Homo sapiens): 2 | IC50 [2]: 2730 nM | IC50 [3]: 1360 nM

C#CCN1C(=O)S/C(=C\c2ccc(N3CCN(c4ccccc4)CC3)cc2)C1=O
Ratio IC50 (Homo sapiens): 2.02 | IC50 [2]: 3010 nM | IC50 [3]: 1490 nM

C#CCN[C@@H]1CCc2ccccc21 [RASAGILINE]
Activity (PC-12): 69.75%

C=CCN1C(=O)S/C(=C\c2ccc(N3CCN(C4CCCCC4)CC3)cc2)C1=O
Ratio IC50 (Homo sapiens): > 5.79 | IC50 [2]: > 10000 nM | IC50 [3]: 1730 nM

CN1CCN(c2ccc(/C=N/Nc3nc(-c4ccc([N+](=O)[O-])cc4)cs3)cc2)CC1
IC50 [1]: 57 nM

CC(C)(C)c1ccc(S(=O)(=O)c2ccc(N3CCN(C(c4ccccc4)c4ccccc4)CC3)cc2)cc1
IC50 [4]: 610 nM

C#CCN1C(=O)S/C(=C\c2ccc(N3CCN(c4ccc(F)cc4)CC3)cc2)C1=O
Ratio IC50 (Homo sapiens): 3.57 | IC50 [2]: 1360 nM | IC50 [3]: 381 nM

O=C1NC(=O)/C(=C/c2ccc(N3CCN(c4ccccc4)CC3)cc2)S1
Ratio IC50 (Homo sapiens): 16.6 | IC50 [2]: 6730 nM | IC50 [3]: 405 nM

CCOc1ccccc1N1CCN(c2ccc(/C=C3\SC(=O)N(Cc4ccccc4)C3=O)cc2)CC1
Ratio IC50 (Homo sapiens): 2.11 | IC50 [2]: 1060 nM | IC50 [3]: 502 nM

COc1ccc(N2CCN(Cc3nnc(SCC(=O)c4ccc(Cl)cc4)n3C)CC2)cc1
IC50 [1]: 70 nM | IC50 [4]: 70 nM

O=C1NC(=O)/C(=C/c2ccc(N3CCN(c4ccc(F)cc4)CC3)cc2)S1
Ratio IC50 (Homo sapiens): 2.83 | IC50 [2]: 7130 nM | IC50 [3]: 2520 nM

C=CCN1C(=O)S/C(=C\c2ccc(N3CCN(c4ccccc4OCC)CC3)cc2)C1=O
Ratio IC50 (Homo sapiens): 6.87 | IC50 [2]: 5580 nM | IC50 [3]: 812 nM

O=C1S/C(=C\c2ccc(N3CCN(c4ccc(F)cc4)CC3)cc2)C(=O)N1Cc1ccccc1
IC50 (SH-SY5Y): 94.7 µM | Activity (PC-12): 73.16% | IC50 [2]: 479 nM | IC50 [3]: 188 nM | Ki [5]: 3.4 nM

O=C1NC(=O)/C(=C/c2ccc(N3CCN(C4CCCCC4)CC3)cc2)S1
Ratio IC50 (Homo sapiens): 2.85 | IC50 [2]: 8980 nM | IC50 [3]: 3150 nM
